Results: patent US11440906B2, “Biguanide derivatives and their rearrangement products for use in the treatment of cancer” (CENTRE NATIONAL DE LA RECHERCHE SCIENTIFIQUE, priority 2017, dated 2022)
Read-outs that look alike come from different tables or passages of the source.

System: A375 Sensitive cells
Experiment: Viability test, trypan blue exclusion, A375 Sensitive cells
Type: cell-based, human
Details: Homo sapiens, A-375; for viability at 5 µM / viability at 10 µM: viable cells as percentage of DMSO control
From the text: Different melanoma cell lines were purchased from the American Tissue Culture Collection: A375 and WM9 cells are mutated on B-Raf, CDKN2A and PTEN proteins; SKmel28 cells are mutated on B-Raf and P53 proteins; 1205Lu cells are mutated on B-Raf and PTEN proteins; G-361 cells are mutated on B-Raf and CDKN2A proteins; C8161 cells are mutated on B-Raf and K-Ras proteins; WM3912 cells are mutated on B-Raf and CDKN2A proteins; MeWo cells are mutated on P53 and CDKN2A proteins; WM3918 presents no mutations on characteristic proteins.
For trypan blue staining, […] of cells (melanoma and normal human cells) were aseptically transferred to a 1.5 mL clear Eppendorf tube and incubated for 3 min at room temperature with an equal volume of 0.4% trypan blue solution. Viable cells were counted and the results are expressed as the percentage of the value of control cells. All the experiments are performed 3 times in triplicate.
A375 Sensitive cells were treated with different concentrations of the synthesized molecules (5.0 μM or 10 μM) for different times (24 hr or 48 hr) or with DMSO (Control) for 12 or 48 hr. At the end of the stimulation, viable cells were counted using the trypan blue dye exclusion method. The results are normalized as percentages compare to the control.
A375 Sensitive cells were treated with 5 μM of CRO15 for different times (2 hr, 4 hr, 6 hr, 8 hr, 12 hr, 24 hr or 48 hr) or with 5 μM of PLX4032 (B-Raf inhibitor) for 48 hr or with DMSO (Control) for 48 hr. At the end of stimulation, viable cells were counted using the trypan blue dye exclusion method. The results are normalized as percentages compare to the control and data means±SEM of three independent experiments performed in triplicate *p<0.05; **p<0.01; ***p<0.001.
A375 Sensitive cells were treated with different concentrations of CRO15 (0.5 μM, 2.5 μM, 5.0 μM, 7.5 μM, 50 μM) for 48 hr or with 5 μM of PLX4032 (B-Raf inhibitor) for 48 hr or with DMSO (Control) for 48 hr. At the end of the stimulation, viable cells were counted using the trypan blue dye exclusion method. The results are normalized as percentages compare to the control and data means±SEM of three independent experiments performed in triplicate *p<0.05; **p<0.01; ***p<0.001.
A375 sensitive and resistant melanoma cells were treated with 5 μM of CRO15 for 48 hr or with 5 μM of PLX4032 for 48 hr or with DMSO (Control). At 48 hours, viable cells were counted using the trypan blue dye exclusion method. The results are normalized as percentages compare to the control and data means±SEM of three independent experiments performed in triplicate *p<0.05; **p<0.01; ***p<0.001.

[1] = 24 h, read-out: Viab A375 5 μM/ 24 h
[2] = 48 h, read-out: Viab A375 5 μM/ 48 h
[3] = 24 h, read-out: Viab A375 10 μM/ 24 h
[4] = 48 h, read-out: Viab A375 10 μM/ 48 h

| IC50 (A375, printed in the 10 μM/24 h column of Table 1, read-out: IC50 (converted)) [nM] | SMILES | viability at 5 µM [1] [%] | viability at 5 µM [2] [%] | viability at 10 µM [3] [%] | viability at 10 µM [4] [%] |
| --- | --- | --- | --- | --- | --- |
| – | COc1ccc(Nc2nc(N)nc(C(Cl)(Cl)Cl)n2)c(SSc2cc(OC)ccc2Nc2nc(N)nc(C(Cl)(Cl)Cl)n2)c1 [MTF 232, N2,N2′-(disulfanediylbis(4-methoxy-2,1-phenylene))bis(6-(trichloromethyl)-1,3,5-triazine-2,4-diamine)] | 83.3 | 24.9 | 33.9 | 16.4 ± 4.9 |
| – | Nc1nc(Nc2ccc(Cl)cc2SSc2cc(Cl)ccc2Nc2nc(N)nc(C(Cl)(Cl)Cl)n2)nc(C(Cl)(Cl)Cl)n1 [MTF 233, N2,N2′-(disulfanediylbis(4-chloro-2,1-phenylene))bis(6-(trichloromethyl)-1,3,5-triazine-2,4-diamine)] | 13.9 | 8.9 | 7 | 4.7 |
| – | Nc1nc(Nc2ccc(F)cc2SSc2cc(F)ccc2Nc2nc(N)nc(C(Cl)(Cl)Cl)n2)nc(C(Cl)(Cl)Cl)n1 [MTF 234, N2,N2′-(disulfanediylbis(4-fluoro-2,1-phenylene))bis(6-(trichloromethyl)-1,3,5-triazine-2,4-diamine)] | 29.6 | 17.4 | 9.6 | 7.8 |
| – | N=C(NC(=N)c1cccc(Br)c1)Nc1nc2ccccc2s1 [MTF 242, N—(N-(benzo[d]thiazol-2-yl)carbamimidoyl)-3-bromobenzimidamide] | 29.2 | 8.1 | 13.4 | 2.9 |
| – | N=C(NC(=N)c1cccc(Cl)c1)Nc1nc2ccccc2s1 [MTF 243, N—(N-(benzo[d]thiazol-2-yl)carbamimidoyl)-3-chlorobenzimidamide] | 22.1 | 7 | 12.1 | 2.7 |
| – | N=C(NC(=N)c1ccccc1Cl)Nc1nc2ccccc2s1 [MTF 244, N—(N-(benzo[d]thiazol-2-yl)carbamimidoyl)-2-chlorobenzimidamide] | 81.6 | 68 | 84.9 | 68.4 |
| – | N=C(NC(=N)c1ccc(Cl)cc1)Nc1nc2ccccc2s1 [MTF 245, N—(N-(benzo[d]thiazol-2-yl)carbamimidoyl)-4-chlorobenzimidamide] | 95 | 100 | 83 | 79.6 |
| – | Cc1ccc(C(=N)NC(=N)Nc2nc3ccccc3s2)cc1 [MTF 246, N—(N-(benzo[d]thiazol-2-yl)carbamimidoyl)-4-methylbenzimidamide] | 137 | 91 | 94 | 115 |
| – | N=C(NC(=N)c1ccc(I)cc1)Nc1nc2ccccc2s1 [MTF 247, N—(N-(benzo[d]thiazol-2-yl)carbamimidoyl)-4-iodobenzimidamide] | 100 | 135 | 122 | 100 |
| – | N=C(NC(=N)c1ccccc1)Nc1nc2ccccc2s1 [MTF 248, N—(N-(benzo[d]thiazol-2-yl)carbamimidoyl)benzimidamide] | 100 | 100 | 80 | 138 |
| – | N=C(NC(=N)c1ccccc1F)Nc1nc2ccccc2s1 [MTF 249, N—(N-(benzo[d]thiazol-2-yl)carbamimidoyl)-2-fluorobenzimidamide] | 25.4 | 10.6 | 14.4 | 8.9 |
| – | N=C(NC(=N)c1ccccc1Br)Nc1nc2ccccc2s1 [MTF 250, N—(N-(benzo[d]thiazol-2-yl)carbamimidoyl)-2-bromobenzimidamide] | 25.4 | 8.9 | 12 | 2.4 |
| – | N=C(NC(=N)c1ccccn1)Nc1nc2ccccc2s1 [MTF 251, N—(N-(benzo[d]thiazol-2-yl)carbamimidoyl)picolinimidamide] | 48.9 | 44.7 | 45.1 | 19.5 |
| – | N=C(NC(=N)c1cccnc1)Nc1nc2ccccc2s1 [MTF 252, N—(N-(benzo[d]thiazol-2-yl)carbamimidoyl)nicotinimidamide] | 8.6 | 5.2 | 12.9 | 2.6 |
| – | N=C(NC(=N)c1ccncc1)Nc1nc2ccccc2s1 [MTF 253, N—(N-(benzo[d]thiazol-2-yl)carbamimidoyl)isonicotinimidamide] | 27.8 | 6.9 | 14.9 | 4.1 |
| – | COc1ccc(C(=N)NC(=N)Nc2nc3ccccc3s2)cc1 [MTF 254, N—(N-(benzo[d]thiazol-2-yl)carbamimidoyl)-4-methoxybenzimidamide] | 100 | 100 | 100 | 100 |
| 2300 | CC(=O)c1cccc(C(=N)NC(=N)Nc2nc3ccccc3s2)c1 [MTF 255, 3-acetyl-N—(N-(benzo[d]thiazol-2-yl)carbamimidoyl)benzimidamide] | 26.1 | 4.7 | 3.2 | 3.8 |
| – | N=C(NC(=N)c1cccc(Br)c1)Nc1nc(-c2ccccc2)cs1 [MTF 256, 3-bromo-N—(N-(4-phenylthiazol-2-yl)carbamimidoyl)benzimidamide] | 93.9 | 60 | 66 | 95.7 |
| – | N=C(NC(=N)c1cccc(Br)c1)Nc1nc(-c2cccc([N+](=O)[O-])c2)cs1 [MTF 257, 3-bromo-N—(N-(4-(3-nitrophenyl)thiazol-2-yl)carbamimidoyl)benzimidamide] | 100 | 80.5 | 106 | 62 |
| – | N=C(NC(=N)c1ccccn1)Nc1nc(-c2cccc([N+](=O)[O-])c2)cs1 [MTF 259, N—(N-(4-(3-nitrophenyl)thiazol-2-yl)carbamimidoyl)picolinimidamide] | 157 | 95.7 | 98 | 96.5 |
| – | N=C(NC(=N)c1cccnc1)Nc1nc(-c2cccc([N+](=O)[O-])c2)cs1 [MTF 260, N—(N-(4-(3-nitrophenyl)thiazol-2-yl)carbamimidoyl)nicotinimidamide] | 57 | 32 | 76.7 | 78 |
| – | N=C(NC(=N)c1ccncc1)Nc1nc(-c2cccc([N+](=O)[O-])c2)cs1 [MTF 261, N—(N-(4-(3-nitrophenyl)thiazol-2-yl)carbamimidoyl)isonicotinimidamide] | 24.6 | 63.6 | 71.9 | 115 |
| – | COc1ccc(C(=N)NC(=N)Nc2nc(-c3ccccc3)cs2)cc1 [MTF 262, 4-methoxy-N—(N-(4-phenylthiazol-2-yl)carbamimidoyl)benzimidamide] | 61.4 | 43.7 | 40.8 | 27.3 |
| – | N=C(NC(=N)c1ccccn1)Nc1nc(-c2ccccc2)cs1 [MTF 263, N—(N-(4-phenylthiazol-2-yl)carbamimidoyl)picolinimidamide] | 89.5 | 91 | 100 | 66 |
| – | COc1ccc2nc(NC(=N)NC(=N)c3cccc(Br)c3)sc2c1 [MTF 264, 3-bromo-N—(N-(6-methoxybenzo[d]thiazol-2-yl)carbamimidoyl)benzimidamide] | 87 | – | 89 | 99 |
